Laboratory results: patent US20100062970A1, “SYNTHESIS OF PROPYL PHENOXY ETHERS AND USE AS DELIVERY AGENTS” (Emisphere Technologies Inc., priority 2006, published 2010)

System: whole blood glucose
Test: In vivo delivery of insulin to fasted rats via oral gavage (whole blood glucose)
Set-up: species or system rat
Details: male Sprague-Dawley rats, delivery agent 200 mg/kg with insulin (human recombinant) 0.5 mg/kg
Protocol: Insulin (human recombinant) was obtained from ICN Biomedicals (Aurora, Ohio) as a bulk powder. To prepare stock solutions, insulin was dissolved in deionized water (pH˜6.5) to obtain a concentration of 15 mg/ml. Stock solutions were kept frozen at −20° C. in 1.0-ml aliquots until used. For dosing solutions, delivery agent was dissolved in deionized water to obtain a final concentration of 200 mg/ml. The free acid form of delivery agent was converted to the sodium salt by adding one equivalent of sodium hydroxide. Solutions were vortexed, sonicated, and heated, and if necessary, additional sodium hydroxide was added in μl quantities to achieve uniform solubility. Solutions were adjusted to a pH of 3.5-8.5 by the addition of either hydrochloric acid or sodium hydroxide. Insulin stock (typically 66.7 μls) was then added to the delivery agent solution to obtain a final concentration of 0.5 mg/ml. After solubilization and drug addition, solutions were brought to final volume by the addition of deionized water.
Insulin was administered to male, Sprague-Dawley rats either alone or in combination with an Emisphere delivery agent by oral gavage (PO). Rats were fasted for 18-24 hours prior to dosing. For dosing, a Rusch 8 French catheter was cut to 11 cm in length and adapted to fit a 1-ml syringe. The syringe was filled with dosing solution and the catheter was wiped dry of excess solution. The catheter was inserted into the rat mouth and fed down the esophagus (10.0 cm). The dosing solution was delivered by pressing the syringe plunger while holding the rat in an upright position.
During blood sampling, rats were exposed briefly (˜10 sec) to carbon dioxide until prostrate, immediately prior to each sampling time point. For blood sampling, a 77-mm capillary tube was inserted into the retroorbital sinus. Typically, blood samples were collected prior to dosing (time 0) and at 15, 30, 45, and 60 minutes after dosing. Samples were collected into Capiject® tubes (Terumo Corporation, Tokyo, Japan) containing a clot activator (red top, serum separator tubes). Samples were allowed to clot for ˜20 min at 4° C. After clotting, samples were centrifuged at 10,000 rpm for 4 minutes at 6° C. in order to separate the serum. Serum was collected into eppendorf tubes and frozen at −20° C. until assayed.
In order to determine the pharmacodynamic response, a hand-held glucometer (OneTouch Ultra, LifeScan® (Johnson & Johnson, New Brunswick, N.J.)) was used to measure whole blood glucose after administration of insulin or insulin and delivery agent. Samples were collected either from the retroorbital sinus (see Sample collection and handling: Insulin) or from the tail artery (i.e. tail clip). For tail clipping, the tip of the tail was severed approximately 5 mm from the tip using a scalpel blade. After discarding the first drop of blood, a small sample (˜5-10 μl) was touched to the glucometer test strip (OneTouch Ultra, LifeScan) and a blood glucose reading was generated by the meter. For each subsequent sampling time point, the clot formed at the tip of the tail was broken up and a fresh sample was collected. Typically, samples were collected prior to dosing (time 0) and at 15, 30, 45, and 60 minutes after dosing.
Concentrations of insulin were quantified in rat serum using a sandwich-type ELISA (kit; Diagnostic Systems Laboratories, Inc., Webster, Tex.). The calibrated assay range was 12.5-250.0 μlU/mL. Serum from rats was obtained internally from stock animals and used to prepare calibration standards and low and high quality control samples (LQC, HQC). The low and high quality control samples for the second curve were prepared at 30 and 150 μlU/mL, respectively. Calibration standards were prepared fresh daily and quality control samples were stored at a nominal temperature of −20° C. Concentration values (test samples) were read from the standard curve, averaged for each time point (n=5), and plotted as mean serum concentration of insulin (±SEM) versus time. […]

| SMILES | % Glucose Cmin (Rat) |
| --- | --- |
| Cc1ccc(C)c(OCCC(=O)O)c1 [Compound 4, 3-(2,5-Dimethyl-phenoxy)-propionic acid] | −39.6% |
| Cc1ccc(OCCC(=O)O)cc1C [Compound 2, 3-(3,4-Dimethyl-phenoxy)-propionic acid] | −48.2% |
| Cc1cccc(C)c1OCCC(=O)O [Compound 7, 3-(2,6-Dimethyl-phenoxy)-propionic acid] | −42.1% |
| Cc1ccc(OCCC(=O)O)c(C)c1 [Compound 9, 3-(2,4-Dimethyl-phenoxy)-propionic acid] | −40.3% |
| Cc1cccc(OCCC(=O)O)c1C [Compound 5, 3-(2,3-Dimethyl-phenoxy)-propionic acid] | −22.2% |
| Cc1cc(C)cc(OCCC(=O)O)c1 [Compound 3, 3-(3,5-Dimethyl-phenoxy)-propionic acid] | −16.6% |
| Cc1cccc(OCCC(=O)O)c1 [Compound 6, 3-m-Tolyloxy-propionic acid] | −29.3% |
| O=C(O)CCOc1ccccc1Cl [Compound 1, 3-2-Chloro-phenoxy-propionic acid] | −47.0% |
| Cc1ccccc1OCCC(=O)O [Compound 8, 3-o-Tolyloxy-propionic acid] | −24.2% |
